Data from ChEMBL document CHEMBL5303573, “Mapping human microbiome drug metabolism by gut bacteria and their genes” (Nature, 2019).

Legend:
[1] = The drug is tested on Dorea formicigenerans strain: ATCC27755 for biotransformation. The drug concentrations were measured before and after a 12-h incubation by liquid-chromatography-coupled mass spectrometry (LC–MS); conditions: 2 µM
[2] = The drug is tested on Bifidobacterium breve strain: DSM20213 for biotransformation. The drug concentrations were measured before and after a 12-h incubation by liquid-chromatography-coupled mass spectrometry (LC–MS); conditions: 2 µM
[3] = The drug is tested on Bacteroides caccae strain: ATCC43185 for biotransformation. The drug concentrations were measured before and after a 12-h incubation by liquid-chromatography-coupled mass spectrometry (LC–MS); conditions: 2 µM
[4] = The drug is tested on Anaerococcus hydrogenalis strain: DSM7454 for biotransformation. The drug concentrations were measured before and after a 12-h incubation by liquid-chromatography-coupled mass spectrometry (LC–MS); conditions: 2 µM
[5] = The drug is tested on Eubacterium ventriosum strain: ATCC27560 for biotransformation. The drug concentrations were measured before and after a 12-h incubation by liquid-chromatography-coupled mass spectrometry (LC–MS); assay type: ADME; design: dose 2 uM, timepoint 0 vs 12 hours; conditions: 2 µM
[6] = The drug is tested on Bacteroides finegoldii strain: DSM17565 for biotransformation. The drug concentrations were measured before and after a 12-h incubation by liquid-chromatography-coupled mass spectrometry (LC–MS); conditions: 2 µM
[7] = bacteroides thetaiotaomicron, 12 h, 2 µM
Description: The drug is tested on Bacteroides thetaiotaomicron strain: 7330 for biotransformation. The drug concentrations were measured before and after a 12-h incubation by liquid-chromatography-coupled mass spectrometry (LC–MS)

[8] = The drug is tested on Blautia hansenii strain: DSM20583 for biotransformation. The drug concentrations were measured before and after a 12-h incubation by liquid-chromatography-coupled mass spectrometry (LC–MS); conditions: 2 µM
[9] = The drug is tested on Eubacterium hallii strain: DSM3353 for biotransformation. The drug concentrations were measured before and after a 12-h incubation by liquid-chromatography-coupled mass spectrometry (LC–MS); conditions: anaerobutyricum hallii, 2 µM
[10] = The drug is tested on Clostridium symbiosum strain: ATCC14940 for biotransformation. The drug concentrations were measured before and after a 12-h incubation by liquid-chromatography-coupled mass spectrometry (LC–MS); conditions: 2 µM
[11] = The drug is tested on Enterobacter cancerogenus strain: ATCC35316 for biotransformation. The drug concentrations were measured before and after a 12-h incubation by liquid-chromatography-coupled mass spectrometry (LC–MS); conditions: 2 µM
[12] = The drug is tested on Parabacteroides merdae strain: ATCC43184 for biotransformation. The drug concentrations were measured before and after a 12-h incubation by liquid-chromatography-coupled mass spectrometry (LC–MS); conditions: 2 µM
[13] = The drug is tested on Enterococcus faecalis strain: V583 for biotransformation. The drug concentrations were measured before and after a 12-h incubation by liquid-chromatography-coupled mass spectrometry (LC–MS); conditions: 2 µM
[14] = The drug is tested on Bacteroides ovatus strain: ATCC8483 for biotransformation. The drug concentrations were measured before and after a 12-h incubation by liquid-chromatography-coupled mass spectrometry (LC–MS); conditions: 2 µM
[15] = The drug is tested on Bacteroides fragilis strain: ATCC43859 for biotransformation. The drug concentrations were measured before and after a 12-h incubation by liquid-chromatography-coupled mass spectrometry (LC–MS); conditions: 2 µM
[16] = enterocloster bolteae, 12 h, 2 µM
Description: The drug is tested on Clostridium bolteae strain: ATCCBAA-613 for biotransformation. The drug concentrations were measured before and after a 12-h incubation by liquid-chromatography-coupled mass spectrometry (LC–MS)

[17] = The drug is tested on Clostridium scindens strain: ATCC35704 for biotransformation. The drug concentrations were measured before and after a 12-h incubation by liquid-chromatography-coupled mass spectrometry (LC–MS); conditions: 2 µM
[18] = bacteroides thetaiotaomicron, 12 h, 2 µM; remark: listed apart in the source
Description: The drug is tested on Bacteroides thetaiotaomicron strain: VPI-5482 for biotransformation. The drug concentrations were measured before and after a 12-h incubation by liquid-chromatography-coupled mass spectrometry (LC–MS)

[19] = The drug is tested on Clostridium ramosum strain: DSM1402 for biotransformation. The drug concentrations were measured before and after a 12-h incubation by liquid-chromatography-coupled mass spectrometry (LC–MS); conditions: thomasclavelia ramosa, 2 µM
[20] = The drug is tested on Bacteroides fragilis strain: HMW615 for biotransformation. The drug concentrations were measured before and after a 12-h incubation by liquid-chromatography-coupled mass spectrometry (LC–MS); conditions: 2 µM

Bacterial Biotransformation [1] | Bacterial Biotransformation [2] | Bacterial Biotransformation [3] | Bacterial Biotransformation [4] | Bacterial Biotransformation [7] | Bacterial Biotransformation [9] | Bacterial Biotransformation [10] | Bacterial Biotransformation [11] | Bacterial Biotransformation [13] | Bacterial Biotransformation [14] | Bacterial Biotransformation [15] | Bacterial Biotransformation [16] | Bacterial Biotransformation [17] | Bacterial Biotransformation [18] | Bacterial Biotransformation [19] | Bacterial Biotransformation [20] | Structure (SMILES) | Bacterial Biotransformation [5] | Bacterial Biotransformation [6] | Bacterial Biotransformation [8] | Bacterial Biotransformation [12]
Compound NOT metabolized | Compound NOT metabolized | Compound NOT metabolized | Compound NOT metabolized | Compound NOT metabolized | Compound NOT metabolized | – | Compound NOT metabolized | Compound NOT metabolized | Compound NOT metabolized | Compound NOT metabolized | Compound NOT metabolized | – | Compound NOT metabolized | Compound NOT metabolized | – | CCN(CC)CCOC(=O)C1(C2CCCCC2)CCCCC1 [DICYCLOMINE] | – | – | – | –
Compound NOT metabolized | Compound NOT metabolized | Compound NOT metabolized | Compound NOT metabolized | Compound metabolized | Compound NOT metabolized | Compound NOT metabolized | Compound NOT metabolized | Compound NOT metabolized | Compound metabolized | Compound metabolized | Compound NOT metabolized | Compound NOT metabolized | Compound metabolized | Compound NOT metabolized | Compound metabolized | O=C1NCC2(CCN(CCc3ccccc3)CC2)O1 [FENSPIRIDE] | Compound NOT metabolized | Compound NOT metabolized | – | –
Compound NOT metabolized | Compound NOT metabolized | Compound NOT metabolized | Compound NOT metabolized | – | Compound NOT metabolized | Compound NOT metabolized | Compound NOT metabolized | Compound NOT metabolized | Compound NOT metabolized | Compound NOT metabolized | Compound NOT metabolized | Compound NOT metabolized | Compound NOT metabolized | Compound NOT metabolized | Compound NOT metabolized | Nc1nnc(-c2cccc(Cl)c2Cl)c(N)n1 [LAMOTRIGINE] | Compound NOT metabolized | Compound NOT metabolized | – | –
Compound NOT metabolized | Compound NOT metabolized | Compound metabolized | Compound NOT metabolized | Compound metabolized | Compound NOT metabolized | Compound NOT metabolized | Compound NOT metabolized | – | Compound NOT metabolized | Compound metabolized | Compound NOT metabolized | Compound NOT metabolized | – | Compound NOT metabolized | Compound metabolized | C#C[C@]1(O)CC[C@H]2[C@@H]3CCC4=CC(=O)CC[C@@H]4[C@H]3CC[C@@]21CC [LEVONORGESTREL] | Compound NOT metabolized | Compound NOT metabolized | – | Compound metabolized
Compound NOT metabolized | Compound NOT metabolized | Compound NOT metabolized | Compound NOT metabolized | Compound NOT metabolized | Compound NOT metabolized | Compound NOT metabolized | Compound NOT metabolized | Compound NOT metabolized | Compound NOT metabolized | Compound NOT metabolized | Compound NOT metabolized | Compound NOT metabolized | Compound NOT metabolized | Compound NOT metabolized | Compound NOT metabolized | CCN(CC)CCNC(=O)c1cc(Cl)c(N)cc1OC [METOCLOPRAMIDE] | Compound NOT metabolized | Compound NOT metabolized | – | Compound NOT metabolized

Structure (SMILES) | Bacterial Biotransformation [1] | Bacterial Biotransformation [2] | Bacterial Biotransformation [3] | Bacterial Biotransformation [4] | Bacterial Biotransformation [7] | Bacterial Biotransformation [9] | Bacterial Biotransformation [10] | Bacterial Biotransformation [11] | Bacterial Biotransformation [13] | Bacterial Biotransformation [14] | Bacterial Biotransformation [15] | Bacterial Biotransformation [16] | Bacterial Biotransformation [17] | Bacterial Biotransformation [18] | Bacterial Biotransformation [19] | Bacterial Biotransformation [20] | Bacterial Biotransformation [5] | Bacterial Biotransformation [6] | Bacterial Biotransformation [8] | Bacterial Biotransformation [12]
CN1[C@@H]2CC[C@H]1C[C@@H](OC(=O)C(CO)c1ccccc1)C2 (stereo partly specified) [ATROPINE] | Compound NOT metabolized | Compound NOT metabolized | Compound NOT metabolized | Compound NOT metabolized | Compound NOT metabolized | Compound NOT metabolized | – | – | – | – | – | – | – | – | – | – | Compound NOT metabolized | Compound NOT metabolized | Compound NOT metabolized | –
CN(C)CC(c1ccc(O)cc1)C1(O)CCCCC1.O=C(O)CCC(=O)O (stereo unspecified) [DESVENLAFAXINE SUCCINATE] | Compound NOT metabolized | Compound NOT metabolized | Compound NOT metabolized | Compound NOT metabolized | – | Compound NOT metabolized | Compound NOT metabolized | Compound NOT metabolized | Compound NOT metabolized | Compound NOT metabolized | Compound NOT metabolized | Compound NOT metabolized | Compound NOT metabolized | Compound NOT metabolized | Compound NOT metabolized | – | Compound NOT metabolized | Compound NOT metabolized | – | Compound NOT metabolized
COCCc1ccc(OCC(O)CNC(C)C)cc1.COCCc1ccc(OCC(O)CNC(C)C)cc1.O=C(O)C(O)C(O)C(=O)O (stereo unspecified) [METOPROLOL TARTRATE] | Compound NOT metabolized | Compound NOT metabolized | Compound NOT metabolized | Compound NOT metabolized | – | Compound NOT metabolized | Compound NOT metabolized | Compound NOT metabolized | Compound NOT metabolized | Compound NOT metabolized | Compound metabolized | Compound NOT metabolized | Compound NOT metabolized | Compound NOT metabolized | Compound NOT metabolized | Compound NOT metabolized | Compound NOT metabolized | Compound NOT metabolized | – | Compound NOT metabolized
COc1ccc(Cc2nccc3cc(OC)c(OC)cc23)cc1OC [PAPAVERINE] | Compound NOT metabolized | Compound NOT metabolized | Compound NOT metabolized | Compound NOT metabolized | Compound NOT metabolized | Compound NOT metabolized | Compound NOT metabolized | Compound NOT metabolized | Compound NOT metabolized | Compound NOT metabolized | Compound NOT metabolized | Compound NOT metabolized | Compound NOT metabolized | Compound NOT metabolized | Compound NOT metabolized | – | Compound NOT metabolized | Compound NOT metabolized | – | Compound NOT metabolized
